According to US8653092B2, “Tetrahydro-pyrido-pyrimidine derivatives” (Novartis AG, priority 2010, dated 2014):
Like-named read-outs stand apart in the source and are kept apart here.

Experiments:
[1] = test system: antibody production to sheep red blood cells (SRBC); assay: Antibody production to sheep red blood cells (SRBC), plaque forming assay; format: in vivo, rat; settings: OFA rats, 10 mg/kg bid orally d0-d3, spleens on d4
Description: In brief, OFA rats were injected i.v. with sheep erythrocytes on d0 and treated orally on four consecutive days (d0 to d3) with the compounds under investigation. Spleen cell suspensions were prepared on d4 and lymphocytes were plated onto soft agar in presence of indicator cells (SRBC) and complement. Lysis of the indicator cells due to secretion of SRBC-specific antibody (predominantly of the IgM subclass) and presence of complement yielded plaques. The number of plaques per plate were counted and expressed as number of plaques per spleen.
Immunization: Groups of five female OFA rats were immunized on day 0 with 2×10^8/ml SRBC (obtained from Laboratory Animal Services LAS, Novartis Pharma AG) in a volume of 0.5 ml per rat by i.v. injection. […]
On day 4, animals were euthanized with CO2 Spleens were removed, weighed, and deposited in plastic tubes containing 10 ml of cold (4° C.) Hank's balanced salt solution (HBSS; Gibco, pH 7.3, containing 1 mg Phenolred/100 ml) for each rat spleen. […] Lymphocyte numbers per spleen were determined by automated cell counter and spleen cell suspensions were adjusted to a cell concentration of 30×10^6/ml. […]
In addition, one ml of 0.7% agarose was prepared in plastic tubes and kept at 48° C. in a water bath. […] Plaques were counted with a microscope. […]

[2] = biological target: human phosphoinositide-3 kinase (PI3K) delta (Homo sapiens (Human), UniProt O00329); assay: PI3K-mediated Akt 1/2 (S473) phosphorylation in Rat-1 cells (AlphaScreen SureFire); format: cell-based; settings: Rat-1 cells overexpressing myristoylated human PI3K delta, p-Akt (Ser473); read-out: Cell PI3Kδ/ IC50 [umol l − 1]
Chain of human phosphoinositide-3 kinase (PI3K) delta (O00329 whole entry): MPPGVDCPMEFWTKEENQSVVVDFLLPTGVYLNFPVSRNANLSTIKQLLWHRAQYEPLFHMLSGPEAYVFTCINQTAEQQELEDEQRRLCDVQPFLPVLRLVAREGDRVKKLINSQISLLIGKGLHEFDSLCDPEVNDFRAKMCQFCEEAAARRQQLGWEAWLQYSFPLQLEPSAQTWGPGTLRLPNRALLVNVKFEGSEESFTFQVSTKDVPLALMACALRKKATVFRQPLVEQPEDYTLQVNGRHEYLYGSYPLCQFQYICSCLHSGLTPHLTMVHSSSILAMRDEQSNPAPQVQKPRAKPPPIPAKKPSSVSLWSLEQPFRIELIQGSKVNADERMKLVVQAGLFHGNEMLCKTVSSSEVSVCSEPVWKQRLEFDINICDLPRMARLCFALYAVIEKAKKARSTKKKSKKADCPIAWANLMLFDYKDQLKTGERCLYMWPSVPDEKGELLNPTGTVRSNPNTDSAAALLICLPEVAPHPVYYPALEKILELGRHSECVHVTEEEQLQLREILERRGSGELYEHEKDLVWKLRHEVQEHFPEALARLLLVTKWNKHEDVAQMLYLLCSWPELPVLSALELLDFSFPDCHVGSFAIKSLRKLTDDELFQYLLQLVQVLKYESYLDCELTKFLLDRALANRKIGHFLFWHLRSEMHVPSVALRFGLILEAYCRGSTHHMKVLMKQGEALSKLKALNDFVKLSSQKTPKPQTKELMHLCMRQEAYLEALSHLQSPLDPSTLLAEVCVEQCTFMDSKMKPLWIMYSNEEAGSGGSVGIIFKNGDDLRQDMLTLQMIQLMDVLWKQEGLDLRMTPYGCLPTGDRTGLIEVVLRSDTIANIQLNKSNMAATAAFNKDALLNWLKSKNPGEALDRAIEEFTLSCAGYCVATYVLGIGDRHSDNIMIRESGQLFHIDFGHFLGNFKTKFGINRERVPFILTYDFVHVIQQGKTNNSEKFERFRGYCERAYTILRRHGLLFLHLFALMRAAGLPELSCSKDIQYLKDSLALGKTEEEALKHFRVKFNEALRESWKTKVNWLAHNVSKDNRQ
Chain of human phosphoinositide-3 kinase (PI3K) delta (Q63787 whole entry partner): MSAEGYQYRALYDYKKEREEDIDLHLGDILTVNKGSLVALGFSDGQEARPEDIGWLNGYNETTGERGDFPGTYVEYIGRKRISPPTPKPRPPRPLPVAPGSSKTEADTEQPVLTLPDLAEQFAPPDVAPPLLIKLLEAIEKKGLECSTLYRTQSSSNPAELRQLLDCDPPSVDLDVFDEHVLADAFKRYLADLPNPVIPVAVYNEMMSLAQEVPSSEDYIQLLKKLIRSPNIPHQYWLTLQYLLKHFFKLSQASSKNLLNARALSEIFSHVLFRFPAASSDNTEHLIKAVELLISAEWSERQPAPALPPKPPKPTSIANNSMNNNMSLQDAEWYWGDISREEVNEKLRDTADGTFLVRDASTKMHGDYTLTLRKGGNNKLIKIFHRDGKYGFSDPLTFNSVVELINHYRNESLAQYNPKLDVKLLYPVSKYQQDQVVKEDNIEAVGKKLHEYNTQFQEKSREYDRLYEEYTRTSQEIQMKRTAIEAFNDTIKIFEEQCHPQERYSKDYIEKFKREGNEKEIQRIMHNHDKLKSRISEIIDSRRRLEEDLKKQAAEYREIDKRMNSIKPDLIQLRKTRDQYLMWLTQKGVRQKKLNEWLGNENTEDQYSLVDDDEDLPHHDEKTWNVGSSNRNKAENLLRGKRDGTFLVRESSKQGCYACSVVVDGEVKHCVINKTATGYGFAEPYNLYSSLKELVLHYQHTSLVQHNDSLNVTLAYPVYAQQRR
Description: Rat-1 cells stably overexpressing a myristoylated form of the catalytic subunit of human phosphoinositide-3 kinase (PI3K) alpha, beta or delta were plated in 384-well plates at a density of 7500 (PI3K alpha), 6200 (PI3K beta), or 4000 (PI3K delta) cells in 30 ul complete growth medium (Dulbecco's modified Eagle's medium (DMEM high glucose) supplemented with 10% (v/v) fetal bovine serum, 1% (v/v) MEM non essential amino acids, 10 mM HEPES, 2 mM L-glutamine, 10 μg/mL puromycin and 1% (v/v) Penicillin/Streptomycin) and were incubated at […]/5% CO2/95% humidity for 24 h. Compounds were diluted in 384-well compound plates to obtain 8-point serial dilutions for 40 test compounds in 90% DMSO, as well as 4 reference compounds plus 16 high controls and 16 low (inhibited) controls. Predilution plates were prepared by dispensing pipetting 250 nl of compound solutions into 384-well polypropylen plates using a Hummingwell nanoliter dispensor. Compounds were prediluted by the addition of 49.75 ul complete growth medium. 10 ul of prediluted compound solution were transferred to the cell plate using a 384-well pipettor, resulting in a final DMSO concentration of 0.11%. Cells were incubated for 1 h at […]/5% CO2/95% humidity. The supernatant was removed, the cells were lysed in 20 ul of lysis buffer for AlphaScreen® SureFire® detection.
For detection of p-AKT (Ser473), the SureFire® p-Akt 1/2 (Ser473) Assay Kit (PerkinElmer, U.S.A) was used. 5 ul of cell lysate was transferred to 384-well low volume Proxiplates for detection using a 384-well pipettor. Addition of AlphaScreen® SureFire® reagents was done according to the manufacturer's protocol. First, 5 ul of reaction buffer plus activation buffer mix containing AlphaScreen® acceptor beads was added, the plate was sealed, and incubated on a plate shaker for 2 hours at room temperature. Second, 2 ul of dilution buffer containing AlphaScreen® donor beads was added, and the plate was incubated on plate shaker as above for a further 2 hours. The plate was read on an AlphaScreen® compatible plate reader, using standard AlphaScreen® settings.

murine B cells = assay: Murine B cell activation: CD86 upregulation after anti-IgM stimulation; format: cell-based, mouse; settings: read-out: mCD86/IC50 CD86 [nmol l − 1]
Description: Spleens from Balb/c mice were collected, splenocytes were isolated and washed twice with RPMI containing 10% foetal bovine serum (FBS), 10 mM HEPES, 100 Units/mL penicilline/streptomycine. RPMI supplemented in this way is subsequently referred to as medium. The cells were adjusted to 2.5×10^6 cells/mL in medium and 200 μl cell suspension (5×10^6 cells) were added to the appropriate wells of 96 well plates.
Then the cells were stimulated by adding 50 μl anti-IgM mAb in medium (final concentration: 30 μg/mL). After incubation for 24 hours at 37° C., the cells were stained with the following antibody cocktails: anti-mouse CD86-FITC, anti-mouse CD69-PerCP-Cy5.5, anti-mouse CD19-PerCP for the assessment of B cells, and anti-mouse CD3-FITC, anti-mouse CD69-PE for the assessment of T cells (2 μl of each antibody/well). After one hour at room temperature (RT) in the dark the cells were transferred to 96 Deepwell plates. The cells were washed once with 1 mL PBS containing 2% FBS and after re-suspension in 200 μl the samples were analyzed on a FACS Calibur flow cytometer. Lymphocytes were gated in the FSC/SSC dot plot according to size and granularity and further analyzed for expression of CD19, CD3 and activation markers (CD86, CD69). Data were calculated from dot blots as percentage of cells positively stained for activation markers within the CD19+ or CD3+ population using BD CellQest Software.
For assessing the inhibitory property of compounds, compounds were first dissolved and diluted in DMSO followed by a 1:50 dilution in medium. Splenocytes from Balb/c mice were isolated, re-suspended and transfered to 96 well plates as described above (200 μl/well). The diluted compounds or solvent were added to the plates (25 μl) and incubated at 37° C. for 1 hour. Then the cultures were stimulated with 25 μl anti-IgM mAb/well (final concentration […]) for 24 hours at 37° C. and stained with anti-mouse CD86-FITC and anti-mouse CD19-PerCP (2 μl of each antibody/well). CD86 expression on CD19 positive B cells was quantified by flow cytometry as described above.

PI3K alpha = PI3K alpha (Homo sapiens (Human), UniProt P42336); assay: Enzymatic PI3K alpha isoform inhibition (lipid kinase, Kinase-Glo luminescence); format: biochemical
Chain of PI3K alpha (P42336 other isoform, or with tags, fused parts or gaps): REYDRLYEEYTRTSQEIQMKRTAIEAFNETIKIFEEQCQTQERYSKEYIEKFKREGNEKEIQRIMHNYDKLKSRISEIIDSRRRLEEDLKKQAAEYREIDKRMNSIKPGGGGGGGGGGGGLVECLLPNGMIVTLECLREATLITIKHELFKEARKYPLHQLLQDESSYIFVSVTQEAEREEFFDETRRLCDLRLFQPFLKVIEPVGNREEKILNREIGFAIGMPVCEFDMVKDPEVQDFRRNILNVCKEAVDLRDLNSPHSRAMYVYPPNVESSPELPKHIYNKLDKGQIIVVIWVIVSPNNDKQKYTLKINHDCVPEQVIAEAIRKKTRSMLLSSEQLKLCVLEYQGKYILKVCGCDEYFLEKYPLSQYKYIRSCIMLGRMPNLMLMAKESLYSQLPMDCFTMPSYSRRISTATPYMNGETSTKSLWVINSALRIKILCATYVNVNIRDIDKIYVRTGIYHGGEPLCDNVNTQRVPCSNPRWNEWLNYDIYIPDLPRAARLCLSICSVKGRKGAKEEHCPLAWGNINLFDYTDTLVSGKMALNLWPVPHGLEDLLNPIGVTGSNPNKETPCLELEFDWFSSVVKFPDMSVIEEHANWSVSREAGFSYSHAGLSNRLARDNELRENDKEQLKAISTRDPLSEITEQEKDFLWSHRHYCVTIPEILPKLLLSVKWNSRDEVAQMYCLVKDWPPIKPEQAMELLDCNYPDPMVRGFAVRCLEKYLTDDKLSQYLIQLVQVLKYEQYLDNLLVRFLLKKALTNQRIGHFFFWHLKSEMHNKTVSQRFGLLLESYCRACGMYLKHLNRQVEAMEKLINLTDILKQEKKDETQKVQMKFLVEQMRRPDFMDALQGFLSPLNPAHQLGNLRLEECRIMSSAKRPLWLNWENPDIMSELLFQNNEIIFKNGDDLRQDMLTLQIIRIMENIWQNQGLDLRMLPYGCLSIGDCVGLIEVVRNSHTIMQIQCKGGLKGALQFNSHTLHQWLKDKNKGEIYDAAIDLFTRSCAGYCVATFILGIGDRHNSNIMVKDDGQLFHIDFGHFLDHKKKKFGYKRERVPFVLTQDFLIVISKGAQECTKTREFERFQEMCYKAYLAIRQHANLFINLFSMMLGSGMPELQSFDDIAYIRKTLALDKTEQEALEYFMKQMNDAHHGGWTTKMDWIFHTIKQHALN

PI3K delta = PI3K delta (Homo sapiens (Human), UniProt O00329); assay: Enzymatic PI3K delta isoform inhibition (lipid kinase, Kinase-Glo luminescence); format: biochemical; settings: enzymatic assay
Chain of PI3K delta (O00329 other isoform, or with tags, fused parts or gaps linker GGGGGG): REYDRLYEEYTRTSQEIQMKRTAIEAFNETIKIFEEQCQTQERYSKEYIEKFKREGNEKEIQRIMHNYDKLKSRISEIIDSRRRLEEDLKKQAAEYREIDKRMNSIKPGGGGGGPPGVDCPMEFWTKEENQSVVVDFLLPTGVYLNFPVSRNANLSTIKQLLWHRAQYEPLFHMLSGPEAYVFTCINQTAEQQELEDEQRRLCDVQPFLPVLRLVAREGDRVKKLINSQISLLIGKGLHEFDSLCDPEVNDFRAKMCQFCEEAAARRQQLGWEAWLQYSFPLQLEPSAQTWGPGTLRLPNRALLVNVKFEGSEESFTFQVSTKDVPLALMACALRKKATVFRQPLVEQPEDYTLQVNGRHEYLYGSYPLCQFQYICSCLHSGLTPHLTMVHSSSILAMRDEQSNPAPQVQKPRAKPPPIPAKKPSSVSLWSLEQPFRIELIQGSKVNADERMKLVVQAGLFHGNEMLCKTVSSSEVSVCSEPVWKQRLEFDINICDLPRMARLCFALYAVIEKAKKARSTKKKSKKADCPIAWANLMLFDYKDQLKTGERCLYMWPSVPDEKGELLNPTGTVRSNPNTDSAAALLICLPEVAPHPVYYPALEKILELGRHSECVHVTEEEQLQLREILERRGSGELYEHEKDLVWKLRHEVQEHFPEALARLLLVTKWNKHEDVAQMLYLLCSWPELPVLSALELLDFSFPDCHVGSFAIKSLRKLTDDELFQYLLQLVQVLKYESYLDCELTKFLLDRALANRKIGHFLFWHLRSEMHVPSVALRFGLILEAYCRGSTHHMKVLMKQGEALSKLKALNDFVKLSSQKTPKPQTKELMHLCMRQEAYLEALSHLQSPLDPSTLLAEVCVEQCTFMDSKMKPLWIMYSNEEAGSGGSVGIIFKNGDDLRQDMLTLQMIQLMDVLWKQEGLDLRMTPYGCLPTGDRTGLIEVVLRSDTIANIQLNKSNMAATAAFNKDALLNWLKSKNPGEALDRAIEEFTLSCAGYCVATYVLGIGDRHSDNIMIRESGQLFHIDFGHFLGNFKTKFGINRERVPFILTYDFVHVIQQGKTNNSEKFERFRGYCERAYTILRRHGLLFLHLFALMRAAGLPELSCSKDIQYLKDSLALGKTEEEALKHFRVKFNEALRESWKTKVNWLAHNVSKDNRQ

[3] = Balb/c mouse splenocytes, anti-IgM 24 h, CD86 on CD19+ B cells

| Structure (SMILES) | Plaques/spleen [1] | IC50 [2] [nM] | IC50 (murine B cells; [3]) [nM] | IC50 (PI3K alpha; enzymatic assay) [nM] | IC50 (PI3K delta) [nM] | IC50 (murine B cells; Mus musculus, 24 h) [nM] | IC50 (PI3K alpha) [nM] |
| --- | --- | --- | --- | --- | --- | --- | --- |
| COc1ncc(N2CCc3ncnc(O[C@H]4CCN(C(=O)C5CCOCC5)C4)c3C2)cc1C [Example 1, {(S)-3-[6-(6-Methoxy-5-methyl-pyridin-3-yl)-5,6,7,8-tetrahydro-pyrido[4,3-d]pyrimidin-4-yloxy]-pyrrolidin-1-yl}-(tetrahydro-pyran-4-yl)-methanone] | 12608 ± 4986 | 153 | 94.9 |  |  |  |  |
| COc1cc(N2CCc3ncnc(O[C@H]4CCN(C(=O)C5CCOCC5)C4)c3C2)cnc1OC [Example 5, {(S)-3-[6-(5,6-Dimethoxy-pyridin-3-yl)-5,6,7,8-tetrahydro-pyrido[4,3-d]pyrimidin-4-yloxy]-pyrrolidin-1-yl}-(tetrahydro-pyran-4-yl)-methanone] |  | 455 | 125 | 749 | 20 |  |  |
| COc1ncc(N2CCc3ncnc(O[C@H]4CCN(C(=O)c5cn(C)cn5)C4)c3C2)cc1C [Example 20, {(S)-3-[6-(6-Methoxy-5-methyl-pyridin-3-yl)-5,6,7,8-tetrahydro-pyrido[4,3-d]pyrimidin-4-yloxy]-pyrrolidin-1-yl}-(1-methyl-1H-imidazol-4-yl)-methanone] |  | 254 | 120 | 1840 | 48 |  |  |
| COc1ncc(N2CCc3ncnc(O[C@H]4CCN(C(=O)c5oc(C)nc5C)C4)c3C2)cc1C#N [Example 28, 5-{4-[(S)-1-(2,4-Dimethyl-oxazole-5-carbonyl)-pyrrolidin-3-yloxy]-7,8-dihydro-5H-pyrido[4,3-d]pyrimidin-6-yl}-2-methoxy-nicotinonitrile] |  | 268 | 71.6 | 1210 | 4 |  |  |
| COc1ncc(N2CCc3ncnc(O[C@H]4CCN(c5ccccn5)C4)c3C2)cc1C(F)(F)F [Example 65, 6-(6-Methoxy-5-trifluoromethyl-pyridin-3-yl)-4-((S)-1-pyridin-2-yl-pyrrolidin-3-yloxy)-5,6,7,8-tetrahydro-pyrido[4,3-d]pyrimidine] |  | 191 | 570 | 738 | 23 |  |  |
| CCC(=O)N1CC[C@H](Nc2ncnc3c2CN(c2cnc(OC)c(C(F)(F)F)c2)CC3)C1 [Example 67, 1-{(S)-3-[6-(6-Methoxy-5-trifluoromethyl-pyridin-3-yl)-5,6,7,8-tetrahydro-pyrido[4,3-d]pyrimidin-4-ylamino]-pyrrolidin-1-yl}-propan-1-one] |  |  |  | 262 |  | 48.3 |  |
| COc1ncc(N2CCc3ncnc(N[C@H]4CCN(C(=O)C5CCOCC5)C4)c3C2)cc1C(F)(F)F [Example 68, {(S)-3-[6-(6-Methoxy-5-trifluoromethyl-pyridin-3-yl)-5,6,7,8-tetrahydro-pyrido[4,3-d]pyrimidin-4-ylamino]-pyrrolidin-1-yl}-(tetrahydro-pyran-4-yl)-methanone] |  | 53 | 14.9 | 43 | 7 |  |  |
| COc1ncc(N2CCc3ncnc(N[C@H]4CCN(C(=O)C5CCOC(C)(C)C5)C4)c3C2)cc1C(F)(F)F (stereo partly drawn) [Example 71, (2,2-Dimethyl-tetrahydro-pyran-4-yl)-{(S)-3-[6-(6-methoxy-5-trifluoromethyl-pyridin-3-yl)-5,6,7,8-tetrahydro-pyrido[4,3-d]pyrimidin-4-ylamino]-pyrrolidin-1-yl}-methanone] |  | 35 | 24.7 |  | 3 |  | 57 |
| CCC(=O)N1CC[C@H](Nc2ncnc3c2CN(c2cnc(OC)c(C)c2)CC3)C1 [Example 81, 1-{(S)-3-[6-(6-Methoxy-5-methyl-pyridin-3-yl)-5,6,7,8-tetrahydro-pyrido[4,3-d]pyrimidin-4-ylamino]-pyrrolidin-1-yl}-propan-1-one] |  | 246 | 86.5 | 651 | 20 |  |  |
| COc1ncc(N2CCc3ncnc(N[C@H]4CCN(C(=O)C5CCOCC5)C4)c3C2)cc1Cl [Example 82, {(S)-3-[6-(5-Chloro-6-methoxy-pyridin-3-yl)-5,6,7,8-tetrahydro-pyrido[4,3-d]pyrimidin-4-ylamino]-pyrrolidin-1-yl}-(tetrahydro-pyran-4-yl)-methanone] |  | 116 | 46.2 | 66 | 3 |  |  |
